{"source": "PubChem BioAssay AID1259407", "about": "(Chemical Carcinogenesis Research Information System (CCRIS), 2018)", "test_system": "CCRIS mutagenicity, Ames/micronucleus/aberration tests", "assay": "CCRIS mutagenicity studies", "key": {"[1]": {"conditions": "Test System: AMES SALMONELLA TYPHIMURIUM, Strain/Indicator: TA98, Metabolic Activation: HAMSTER, LIVER, S-9, AROCLOR 1254, Method: PREINCUBATION"}, "[2]": {"conditions": "Test System: AMES SALMONELLA TYPHIMURIUM, Strain/Indicator: TA98, Metabolic Activation: NONE, Method: PREINCUBATION"}, "[3]": {"conditions": "Test System: AMES SALMONELLA TYPHIMURIUM, Strain/Indicator: TA98, Metabolic Activation: RAT, LIVER, S-9, AROCLOR 1254, Method: PREINCUBATION"}, "[4]": {"conditions": "Test System: AMES SALMONELLA TYPHIMURIUM, Strain/Indicator: TA100, Metabolic Activation: HAMSTER, LIVER, S-9, AROCLOR 1254, Method: PREINCUBATION"}, "[5]": {"conditions": "Test System: AMES SALMONELLA TYPHIMURIUM, Strain/Indicator: TA100, Metabolic Activation: NONE, Method: PREINCUBATION"}, "[6]": {"conditions": "Test System: AMES SALMONELLA TYPHIMURIUM, Strain/Indicator: TA100, Metabolic Activation: RAT, LIVER, S-9, AROCLOR 1254, Method: PREINCUBATION"}, "[7]": {"conditions": "Test System: AMES SALMONELLA TYPHIMURIUM, Strain/Indicator: TA1535, Metabolic Activation: HAMSTER, LIVER, S-9, AROCLOR 1254, Method: PREINCUBATION"}, "[8]": {"conditions": "Test System: AMES SALMONELLA TYPHIMURIUM, Strain/Indicator: TA1535, Metabolic Activation: NONE, Method: PREINCUBATION"}, "[9]": {"conditions": "Test System: AMES SALMONELLA TYPHIMURIUM, Strain/Indicator: TA1535, Metabolic Activation: RAT, LIVER, S-9, AROCLOR 1254, Method: PREINCUBATION"}, "[10]": {"conditions": "Test System: AMES SALMONELLA TYPHIMURIUM, Strain/Indicator: TA1537, Metabolic Activation: HAMSTER, LIVER, S-9, AROCLOR 1254, Method: PREINCUBATION"}, "[11]": {"conditions": "Test System: AMES SALMONELLA TYPHIMURIUM, Strain/Indicator: TA1537, Metabolic Activation: NONE, Method: PREINCUBATION"}, "[12]": {"conditions": "Test System: AMES SALMONELLA TYPHIMURIUM, Strain/Indicator: TA1537, Metabolic Activation: RAT, LIVER, S-9, AROCLOR 1254, Method: PREINCUBATION"}, "[13]": {"conditions": "Test System: AMES SALMONELLA TYPHIMURIUM, Strain/Indicator: TA98, Metabolic Activation: NONE, Method: STANDARD PLATE"}, "[14]": {"conditions": "Test System: AMES SALMONELLA TYPHIMURIUM, Strain/Indicator: TA98, Metabolic Activation: RAT, LIVER, S-9, AROCLOR 1254, Method: STANDARD PLATE"}, "[15]": {"conditions": "Test System: AMES SALMONELLA TYPHIMURIUM, Strain/Indicator: TA100, Metabolic Activation: NONE, Method: STANDARD PLATE"}, "[16]": {"conditions": "Test System: AMES SALMONELLA TYPHIMURIUM, Strain/Indicator: TA100, Metabolic Activation: RAT, LIVER, S-9, AROCLOR 1254, Method: STANDARD PLATE"}}, "note": "Entries after “also recorded” stand apart in the source; their conditions may differ. Activity calls are given as the source filed them. The rule behind the calls is not given here."}
{"smiles": "Nc1nc(N)nc(N)n1", "values": [{"measurement": "mutagenic call", "setting": "End Point: IN VITRO CHROMOSOMAL ABERRATIONS, Test System: CHINESE HAMSTER OVARY CELLS, Metabolic Activation: NONE", "result": "inactive; negative"}, {"measurement": "mutagenic call", "setting": "End Point: IN VITRO CHROMOSOMAL ABERRATIONS, Test System: CHINESE HAMSTER OVARY CELLS, Metabolic Activation: RAT, LIVER, S-9, AROCLOR 1254", "result": "inactive; negative"}, {"measurement": "mutagenic call", "setting": "[1]", "result": "inactive; negative"}, {"measurement": "mutagenic call", "setting": "[2]", "result": "inactive; negative"}, {"measurement": "mutagenic call", "setting": "[3]", "result": "inactive; negative"}, {"measurement": "mutagenic call", "setting": "[4]", "result": "inactive; negative"}, {"measurement": "mutagenic call", "setting": "[5]", "result": "inactive; negative"}, {"measurement": "mutagenic call", "setting": "[6]", "result": "inactive; negative"}, {"measurement": "mutagenic call", "setting": "[7]", "result": "inactive; negative"}, {"measurement": "mutagenic call", "setting": "[8]", "result": "inactive; negative"}, {"measurement": "mutagenic call", "setting": "[9]", "result": "inactive; negative"}, {"measurement": "mutagenic call", "setting": "[10]", "result": "inactive; negative"}, {"measurement": "mutagenic call", "setting": "[11]", "result": "inactive; negative"}, {"measurement": "mutagenic call", "setting": "[12]", "result": "inactive; negative"}, {"measurement": "mutagenic call", "setting": "Test System: UDS RAT HEPATOCYTES, Strain/Indicator: BROMODEOXYURIDINE INCORP, Metabolic Activation: NONE, Method: FLOW CYTOMETRIC ANALYSIS", "result": "inactive; negative"}, {"measurement": "mutagenic call", "setting": "Test System: UDS RAT HEPATOCYTES, Strain/Indicator: THY INCORP, Metabolic Activation: NONE, Method: AUTORADIOGRAPHY", "result": "inactive; negative"}]}
{"smiles": "Brc1c(Br)c(Br)c(Oc2c(Br)c(Br)c(Br)c(Br)c2Br)c(Br)c1Br", "values": [{"measurement": "mutagenic call", "setting": "End Point: IN VITRO CHROMOSOMAL ABERRATIONS, Test System: CHO CELLS, Metabolic Activation: NONE", "result": "inactive; negative; precipitation occurred at 160 and 500 ug/ml; also recorded: inactive; negative; precipitation occurred at 250 and 500 ug/ml"}, {"measurement": "mutagenic call", "setting": "End Point: IN VITRO CHROMOSOMAL ABERRATIONS, Test System: CHO CELLS, Metabolic Activation: RAT, LIVER, S-9, AROCLOR 1254", "result": "inactive; negative; precipitation occurred at 250 and 500 ug/ml"}, {"measurement": "mutagenic call", "setting": "[1]", "result": "inactive; negative"}, {"measurement": "mutagenic call", "setting": "[2]", "result": "inactive; negative"}, {"measurement": "mutagenic call", "setting": "Test System: AMES SALMONELLA TYPHIMURIUM, Strain/Indicator: TA98, Metabolic Activation: RAT LIVER S-9, PHENOBARBITAL AND BETA-NAPHTHOFLAVONE, Method: PREINCUBATION", "result": "inactive; negative"}, {"measurement": "mutagenic call", "setting": "[3]", "result": "inactive; negative"}, {"measurement": "mutagenic call", "setting": "[4]", "result": "inactive; negative"}, {"measurement": "mutagenic call", "setting": "[5]", "result": "inactive; negative"}, {"measurement": "mutagenic call", "setting": "Test System: AMES SALMONELLA TYPHIMURIUM, Strain/Indicator: TA100, Metabolic Activation: RAT LIVER S-9, PHENOBARBITAL AND BETA-NAPHTHOFLAVONE, Method: PREINCUBATION", "result": "inactive; negative"}, {"measurement": "mutagenic call", "setting": "[6]", "result": "inactive; negative"}, {"measurement": "mutagenic call", "setting": "[7]", "result": "inactive; negative"}, {"measurement": "mutagenic call", "setting": "[8]", "result": "inactive; negative"}, {"measurement": "mutagenic call", "setting": "Test System: AMES SALMONELLA TYPHIMURIUM, Strain/Indicator: TA1535, Metabolic Activation: RAT LIVER S-9, PHENOBARBITAL AND BETA-NAPHTHOFLAVONE, Method: PREINCUBATION", "result": "inactive; negative"}, {"measurement": "mutagenic call", "setting": "[9]", "result": "inactive; negative"}, {"measurement": "mutagenic call", "setting": "[10]", "result": "inactive; negative"}, {"measurement": "mutagenic call", "setting": "[11]", "result": "inactive; negative"}, {"measurement": "mutagenic call", "setting": "Test System: AMES SALMONELLA TYPHIMURIUM, Strain/Indicator: TA1537, Metabolic Activation: RAT LIVER S-9, PHENOBARBITAL AND BETA-NAPHTHOFLAVONE, Method: PREINCUBATION", "result": "inactive; negative"}, {"measurement": "mutagenic call", "setting": "[12]", "result": "inactive; negative"}, {"measurement": "mutagenic call", "setting": "Test System: CHO/HGPRT, Strain/Indicator: CHO/GIEMSA, Metabolic Activation: NONE, Method: STANDARD PLATE", "result": "inactive; negative"}, {"measurement": "mutagenic call", "setting": "Test System: CHO/HGPRT, Strain/Indicator: CHO/GIEMSA, Metabolic Activation: RAT, LIVER, S-9, AROCLOR 1254, Method: STANDARD PLATE", "result": "inactive; negative"}, {"measurement": "mutagenic call", "setting": "Test System: E.COLI, Strain/Indicator: WP2UVRA/PKM101, Metabolic Activation: NONE, Method: PREINCUBATION", "result": "inactive; negative"}, {"measurement": "mutagenic call", "setting": "Test System: E.COLI, Strain/Indicator: WP2UVRA/PKM101, Metabolic Activation: RAT LIVER S-9, PHENOBARBITAL AND BETA-NAPHTHOFLAVONE, Method: PREINCUBATION", "result": "inactive; negative"}, {"measurement": "mutagenic call", "setting": "Test System: MOUSE LYMPHOMA, Strain/Indicator: L5178Y (TK+/TK-), Metabolic Activation: NONE, Method: SUSPENSION/PLATE", "result": "inactive; negative"}, {"measurement": "mutagenic call", "setting": "Test System: MOUSE LYMPHOMA, Strain/Indicator: L5178Y (TK+/TK-), Metabolic Activation: RAT, LIVER, S-9, AROCLOR 1254, Method: SUSPENSION/PLATE", "result": "inactive; negative"}]}
{"smiles": "O=C1c2c(O)ccc3c2[C@H](c2ccc(O)c4c2[C@H]3[C@H]2O[C@H]2C4=O)[C@H]2O[C@@H]12", "values": [{"measurement": "mutagenic call", "setting": "[13]", "result": "active; positive"}, {"measurement": "mutagenic call", "setting": "[14]", "result": "active; positive"}, {"measurement": "mutagenic call", "setting": "Test System: AMES SALMONELLA TYPHIMURIUM, Strain/Indicator: TA98, Method: STANDARD PLATE", "result": "active; positive"}, {"measurement": "mutagenic call", "setting": "[15]", "result": "active; positive"}, {"measurement": "mutagenic call", "setting": "[16]", "result": "active; positive"}, {"measurement": "mutagenic call", "setting": "Test System: AMES SALMONELLA TYPHIMURIUM, Strain/Indicator: TA1537, Metabolic Activation: NONE, Method: STANDARD PLATE", "result": "active; positive"}, {"measurement": "mutagenic call", "setting": "Test System: AMES SALMONELLA TYPHIMURIUM, Strain/Indicator: TA1537, Metabolic Activation: RAT, LIVER, S-9, AROCLOR 1254, Method: STANDARD PLATE", "result": "active; positive"}]}
{"smiles": "[O]=[V]([OH])([OH])[OH]", "values": [{"measurement": "mutagenic call", "setting": "End Point: IN VIVO MICRONUCLEUS, Test System: POLYCHROMATIC ERYTHROCYTES, Species: MOUSE, Strain/Sex: (102/E1 X C3H/E1)F1/MALE, Route: IP INJECTION", "result": "inactive; negative"}]}
{"smiles": "Nc1ccc(CCc2ccc(N)cc2)cc1", "values": [{"measurement": "mutagenic call", "setting": "[13]", "result": "inactive; negative"}, {"measurement": "mutagenic call", "setting": "[14]", "result": "active; positive"}, {"measurement": "mutagenic call", "setting": "[15]", "result": "inactive; negative"}, {"measurement": "mutagenic call", "setting": "[16]", "result": "active; positive"}]}
{"smiles": "O=[N+]([O-])c1cc2[nH]c3ccc4c(O)cccc4c3c2c2ccccc12", "values": [{"measurement": "mutagenic call", "setting": "[13]", "result": "active; positive"}, {"measurement": "mutagenic call", "setting": "Test System: AMES SALMONELLA TYPHIMURIUM, Strain/Indicator: TA98, Metabolic Activation: RAT, LIVER, S-9, 3-METHYLCHOLANTHRENE, Method: STANDARD PLATE", "result": "active; positive"}, {"measurement": "mutagenic call", "setting": "[15]", "result": "active; positive"}, {"measurement": "mutagenic call", "setting": "Test System: AMES SALMONELLA TYPHIMURIUM, Strain/Indicator: TA100, Metabolic Activation: RAT, LIVER, S-9, 3-METHYLCHOLANTHRENE, Method: STANDARD PLATE", "result": "active; positive"}]}
{"smiles": "O=C1CCC(=O)N1c1cc(Cl)cc(Cl)c1", "values": [{"measurement": "mutagenic call", "setting": "[13]", "result": "inactive; negative"}, {"measurement": "mutagenic call", "setting": "[14]", "result": "inactive; negative"}, {"measurement": "mutagenic call", "setting": "[15]", "result": "inactive; negative"}, {"measurement": "mutagenic call", "setting": "[16]", "result": "inactive; negative"}]}
